Source: patent US8153561B2, “Limonene-containing herbicide compositions, herbicide concentrate formulations and methods for making and using same for organic production” (Cutting Edge Formulations, Inc., priority 2005, dated 2012)

Tested on: common lambsquarters
Experiment: Field trial Zellwood, Fla.: damage rating on common lambsquarters, sprayed until runoff
Type: in vivo
Conditions: commercial burn down standard; improved by Day 3
Protocol: FIG. 7 is a bar graph setting forth results from a field study on lambsquarters conducted in Florida in January of 2005. Ratings are based on 0 to 10 (no damage to dead). Statistical analysis is by Duncan's MRT (P<0.05).
A field trial was conducted in Zellwood, Fla. The same formulation described in Example 1 was used in the Florida trial. All limonene treatments were made at a 3:1 ratio by volume, represented as water:herbicide formulation ratio, to provide a herbicide composition of 22% limonene (w/w %). Four reps per treatment were used; all treatments were randomly distributed within a rep. The weed species was common lambsquarters (1 to 2 feet in height). Treatments applied were pH 3, 7, 8 and 9 with and without a silicone surfactant, Silwet; each treatment was sprayed until runoff. The commercial burn down standard, Gramoxone (Paraquat) was included. Readings were taken at 1 and 2 hours, and 1, 3 and 7 days. […] Effects with Gramoxone (Paraquat) were first observed on day 1 and improved by Day 3. After the first 2 hours limonene effects were stabilized.

C[n+]1ccc(-c2cc[n+](C)cc2)cc1 [Gramoxone, Paraquat] showed an effects first observed of 1 days.
